From patent publication US11401278B2, “Macrocyclic indole derivatives” (The Broad Institute, Inc., priority 2017, dated 2022) come the findings set out here.

For data set [1], the target named is MCL-1 (Homo sapiens (Human), UniProt Q07820, K194A/K197A/R201A). Description: Protein-protein interaction assay MCL-1/Noxa BH3 peptide (MCL-1 assay, TR-FRET). It is filed as binding. The conditions noted are these: MBP-MCL-1 / Noxa BH3 peptide, median. The procedure, abridged:
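MBP-fused MCL-1 (aa 173-329, 1 nM) was pre-incubated with compound for 10 min at 22° C, then biotinylated Noxa BH3 peptide (1 nM) was added with anti-MBP-Eu cryptate and streptavidin-XL665. Incubation was 1 h at 22° C, then overnight at 4° C, in Tris pH 7 buffer. The 665/620 nm ratio over 11 concentrations (0.1 nM-20 μM) gave IC50 by 4-parameter fit.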

Data set [2] deals with SUDHL5. As to the kind of experiment: Induction of cytotoxicity (Assay 6), SUDHL5. The following applies: read-out: Cytotox SUDHL5 [M] (median) IC50, CellTiter-Glo, 5 hours, SUDHL5.
Protocol: Assay 6 Induction of Cytotoxicity Upon Treatment of Cells with Selected Compounds
Therefore, cytotoxicity assays were run in parallel in SUDHL5 and SUDHL10 cells.
The different cell lines were plated in culture medium (RPMI 1640 [GIBCO #22400-089] supplemented with 10% Fetal Bovine Serum) at a density of 3,300 cells in 30 μl/well in a sterile, solid black, flat bottom, polystyrene, TC-treated 384-well microplate (Corning #3571) using Multidrop Combi Reagent Dispenser. As a control, medium without cells was also added to the plate. Cells were incubated in a humidified incubator at 37° C. overnight. On the next day, the cells were treated with compounds (stock solution, 10 mM in DMSO) using the HP D300 Digital Dispenser in a concentration range of 3.3×10e-5 M (33 μM) to 5×10e-9 M (5 nM) in a single-dot curve with at least 16 dilutions and a DMSO concentration of 0.33%. Rim wells were excluded. The cells were incubated for 5 hours in a humidified incubator at 37° C. After this incubation, 30 μl of CellTiter-Glo® Luminescent Cell Viability reagent (Promega, G7573) was added to each well using the Multidrop Combi Reagent Dispenser, followed by 15 minutes incubation on a shaker at room temperature. Finally, luminescence was read at 0.1 ms, with a gain of 3000 using the PHERAstar FS microplate reader (BMG Labtech).

Counter-ions that a name gives are not always drawn. Like-named read-outs stand apart in the source and are kept apart here.

MCL-1, sequence (Q07820 whole entry K194A/K197A/R201A, looked up, the tested form may be a part): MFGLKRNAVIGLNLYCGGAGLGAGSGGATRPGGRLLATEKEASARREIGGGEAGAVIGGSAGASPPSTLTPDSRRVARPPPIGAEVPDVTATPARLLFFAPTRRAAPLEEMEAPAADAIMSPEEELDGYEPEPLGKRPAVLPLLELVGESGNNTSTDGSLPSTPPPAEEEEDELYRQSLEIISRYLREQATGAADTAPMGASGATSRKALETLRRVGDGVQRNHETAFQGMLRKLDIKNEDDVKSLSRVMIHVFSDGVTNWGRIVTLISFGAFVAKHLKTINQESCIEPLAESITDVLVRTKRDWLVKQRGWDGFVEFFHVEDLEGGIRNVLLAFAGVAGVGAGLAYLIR

For orientation: IC50 means the concentration at which inhibition is half-maximal. For `CCc1c2c(nn1C)CN(CCCN1CCOCC1)S(=O)(=O)CCCn1c(C(=O)O)c(CCCOc3cccc4ccccc34)c3cccc-2c31` (racemic) [Example 15, (rac)-12-Ethyl-11-methyl-8-(3-morpholinopropyl)-1-(3-(naphthalen-1-yloxy)propyl)-4,5,6,8,9,11-hexahydropyrazolo[3′,4′:4,5][1,2,8]thiadiazacycloundecino[6,7,8-hi]indole-2-carboxylic acid 7,7-dioxide 2,2,2-trifluoroacetic acid salt], the IC50 in data set [1] stood at 5.6 nM; in data set [2] (Homo sapiens, SU-DHL-5, 5 h), 2.9e-06 M.
For the molecule `CCc1c2c(nn1C)CN(C1CC1)S(=O)(=O)CCCn1c(C(=O)O)c(CCCOc3cccc4cc(F)ccc34)c3ccc(Cl)c-2c31` (racemic) [Example 53, (rac)-4-chloro-14-cyclopropyl-3-ethyl-7-{3-[(6-fluoro-1-naphthyl)oxy]propyl}-2-methyl-11,12,14,15-tetrahydro-2H,10H-pyrazolo[3′,4′:4,5][1,2,8]thiadiazacycloundecino[6,7,8-hi]indole-8-carboxylic acid 13,13-dioxide], the figures for the IC50 in data set [1] and in data set [2] were 1.7 nM and 8.1e-07 M, respectively.
On to `Cc1c2c(nn1C)CN(C)S(=O)(=O)CCCn1c(C(=O)O)c(CCCOc3cccc4c3CCC4)c3ccc(F)c-2c31` (racemic) [Example 27, (rac)-1-(3-((2,3-Dihydro-1H-inden-4-yl)oxy)propyl)-13-fluoro-8,11,12-trimethyl-5,6,9,11-tetrahydro-4H,8H-pyrazolo[3′,4′:4,5][1]thia[2,8]diazacycloundecino[6,7,8-hi]indole-2-carboxylic acid 7,7-dioxide], for which the IC50 in data set [1] is 2.1 nM; in data set [2] (Homo sapiens, SU-DHL-5, 5 h), 8.7e-07 M.
With `Cc1c2c(nn1C)CN(C)S(=O)(=O)CCCn1c(C(=O)O)c(CCCOc3cccc4cc(F)ccc34)c3ccc(F)c-2c31` (single isomer, unassigned; enantiomer 1) [Example 38, (−)-4-fluoro-7-{3-[(6-fluoronaphthalen-1-yl)oxy]propyl}-2,3,14-trimethyl-13,13-dioxo-10,11,12,13,14,15-hexahydro-2H-13lambda^6-pyrazolo[3′,4′:4,5][1,2,8]thiadiazacycloundecino-[6,7,8-hi]indole-8-carboxylic acid (Enantiomer 1)], the results for the IC50 in data set [1] and in data set [2] were 23 nM and 1.7e-05 M, respectively.
For `Cc1c2c(nn1C)C(CCN1CCOCC1)N(C)S(=O)(=O)CCCn1c(C(=O)O)c(CCCOc3cccc4cc(F)ccc34)c3ccc(Cl)c-2c31` (single isomer, unassigned; enantiomer 1) [Example 66, 4-chloro-7-{3-[(6-fluoronaphthalen-1-yl)oxy]propyl}-2,3,14-trimethyl-15-[2-(morpholin-4-yl)ethyl]-13,13-dioxo-10,11,12,13,14,15-hexahydro-2H-13lambda^6-pyrazolo[3′,4′:4,5][1,2,8]thiadiazacycloundecino[6,7,8-hi]indole-8-carboxylic acid (Enantiomer 1)], in that order: 22 nM and 3.3e-06 M.
In the case of `Cc1c2c(nn1C)CN(C)S(=O)(=O)CCCn1c(C(=O)O)c(CCCOc3cccc4cc(F)ccc34)c3ccc(F)c-2c31` (racemic) [Example 25, (rac)-13-Fluoro-1-(3-((6-fluoronaphthalen-1-yl)oxy)propyl)-8,11,12-trimethyl-5,6,9,11-tetrahydro-4H,8H-pyrazolo[3′,4′:4,5][1]thia[2,8]diazacycloundecino[6,7,8-hi]indole-2-carboxylic acid 7,7-dioxide], the IC50 in data set [1] was determined as 1.7 nM; in data set [2] (Homo sapiens, SU-DHL-5, 5 h), 7.5e-07 M.
Take `CCc1c2c(nn1C)CN(C)S(=O)(=O)CCCn1c(C(=O)O)c(CCCOc3ccc(F)c4ccccc34)c3ccc(F)c-2c31` (racemic) [Example 35, (rac)-12-Ethyl-13-fluoro-1-(34(4-fluoronaphthalen-1-yl)oxy)propyl)-8,11-dimethyl-5,6,9,11-tetrahydro-4H,8H-pyrazolo[3′,4′:4,5][1]thia[2,8]diazacycloundecino[6,7,8-hi]indole-2-carboxylic acid 7,7-dioxide]: the IC50 is 3.5 nM in data set [1] and 1.6e-06 M in data set [2] (Homo sapiens, SU-DHL-5, 5 h).
The matching figures for `Cc1c2c(nn1C)C(N1CCOCC1)CCN(C)S(=O)(=O)CCCn1c(C(=O)O)c(CCCOc3cccc4cc(F)ccc34)c3ccc(Cl)c-2c31` (racemic) [Example 47, (rac)-15-chloro-1-(3-((6-fluoronaphthalen-1-yl)oxy)propyl)-8,13,14-trimethyl-11-(rac)-morpholino-5,6,9,10,11,13-hexahydro-4H,8H-pyrazolo[3′,4′:6,7][1]thia[2,10]diazacyclotridecino[8,9,10-hi]indole-2-carboxylic acid 7,7-dioxide (Mixture of Stereoisomers)]: 0.8 nM and 3.6e-07 M.
In the case of `CCc1c2c(nn1C)CN(C)S(=O)(=O)CCCn1c(C(=O)O)c(CCCOc3cccc4cc(F)ccc34)c3ccc(Cl)c-2c31` (single isomer, unassigned; enantiomer 1) [Example 36, (+)-4-chloro-3-ethyl-7-{3-[(6-fluoronaphthalen-1-yl)oxy]propyl}-2,14-dimethyl-13,13-dioxo-10,11,12,13,14,15-hexahydro-2H-13lambda^6-pyrazolo[3′,4′:4,5][1,2,8]thiadiazacycloundecino-[6,7,8-hi]indole-8-carboxylic acid (Enantiomer 1)], the IC50 in data set [1] came to 0.6 nM; in data set [2] it was 1.6e-07 M.
Regarding `CCc1c2c(nn1C)CN(C)S(=O)(=O)CCCn1c(C(=O)O)c(CCCOc3ccc(F)c4ccccc34)c3ccc(Cl)c-2c31` [Example 24, (rac)-13-Chloro-12-ethyl-1-(34(4-fluoronaphthalen-1-yl)oxy)propyl)-8,11-dimethyl-4,5,6,8,9,11-hexahydropyrazolo[3′,4′:4,5][1,2,8]thiadiazacycloundecino[6,7,8-hi]indole-2-carboxylic acid 7,7-dioxide], the IC50 stood at 3.4 nM in data set [1] and 1.3e-06 M in data set [2] (Homo sapiens, SU-DHL-5, 5 h).
On to `Cc1c2c(nn1C)CN(CCN1CCOCC1)S(=O)(=O)CCCn1c(C(=O)O)c(CCCOc3cccc4ccccc34)c3cccc-2c31` (single isomer, unassigned; enantiomer 2) [Example 3, 2,3-Dimethyl-14-[2-(morpholin-4-yl)ethyl]-7-{3-[(naphthalen-1-yl)oxy]propyl}-13,13-dioxo-10,11,12,13,14,15-hexahydro-2H-13λ^6-pyrazolo[3′,4′:4,5][1,2,8]thiadiazacycloundecino-[6,7,8-hi]indole-8-carboxylic acid-N-ethylethanamine salt (Enantiomer 2)], for which the IC50 in data set [1] is 270 nM; in data set [2] it was more than 3.3e-05 M.
In the case of `CCc1c2c(nn1C)CN(C)S(=O)(=O)CCCn1c(C(=O)O)c(CCCOc3cc(C)c(Cl)c(C)c3)c3ccc(F)c-2c31` (racemic) [Example 33, (rac)-1-(3-(4-Chloro-3,5-dimethylphenoxy)propyl)-12-ethyl-13-fluoro-8,11-dimethyl-5,6,9,11-tetrahydro-4H,8H-pyrazolo[3′,4′:4,5][1]thia[2,8]diazacycloundecino[6,7,8-hi]indole-2-carboxylic acid 7,7-dioxide], the IC50 in data set [1] turned out to be 4.2 nM; in data set [2] (Homo sapiens, SU-DHL-5, 5 h), 2.6e-06 M.
Consider `CCc1c2c(nn1C)CN(C)S(=O)(=O)CCCn1c(C(=O)O)c(CCCOc3cccc4cc(F)ccc34)c3ccc(F)c-2c31` (single isomer, unassigned; enantiomer 1) [Example 8, (+)-3-Ethyl-4-fluoro-7-{3-[(6-fluoronaphthalen-1-yl)oxy]propyl}-2,14-dimethyl-13,13-dioxo-10,11,12,13,14,15-hexahydro-2H-13λ^6-pyrazolo[3′,4′:4,5][1,2,8]thiadiazacycloundecino-[6,7,8-hi]indole-8-carboxylic acid (Enantiomer 1)], for which the IC50 in data set [1] was 1.7 nM; in data set [2] it was 7.7e-07 M.
For `Cc1c2c(nn1C)CN(C)S(=O)(=O)CCCn1c(C(=O)O)c(CCCOc3cccc4ccccc34)c3ccc(Cl)c-2c31` (racemic) [Example 4, (rac)-4-Chloro-2,3,14-trimethyl-7-{3-[(naphthalen-1-yl)oxy]propyl}-13,13-dioxo-10,11,12,13,14,15-hexahydro-2H-13λ^6-pyrazolo[3′,4′:4,5][1,2,8]thiadiazacycloundecino-[6,7,8-hi]indole-8-carboxylic acid], in that order: 1.2 nM and 8.1e-07 M.
For `Cc1c2c(nn1C)CNS(=O)(=O)CCCn1c(C(=O)O)c(CCCOc3cccc4cc(F)ccc34)c3ccc(Cl)c-2c31` (single isomer, unassigned; enantiomer 1) [Example 51, 4-chloro-7-{3-[(6-fluoronaphthalen-1-yl)oxy]propyl}-2,3-dimethyl-13,13-dioxo-10,11,12,13,14,15-hexahydro-2H-13lambda^6-pyrazolo[3′,4′:4,5][1,2,8]thiadiazacycloundecino[6,7,8-hi]indole-8-carboxylic acid (Enantiomer 1)], in that order: 0.96 nM and 5e-07 M.
Take `CCc1c2c(nn1C)CN(CCN1CCCCC1)S(=O)(=O)CCCn1c(C(=O)O)c(CCCOc3cccc4ccccc34)c3cccc-2c31` (racemic) [Example 14, (rac)-12-Ethyl-11-methyl-1-(3-(naphthalen-1-yloxy)propyl)-8-(2-(piperidin-1-yl)ethyl)-4,5,6,8,9,11-hexahydropyrazolo[3′,4′:4,5][1,2,8]thiadiazacycloundecino[6,7,8-hi]indole-2-carboxylic acid 7,7-dioxide 2,2,2-trifluoroacetic acid salt]: the IC50 in data set [1] was determined as 9.8 nM; in data set [2] (Homo sapiens, SU-DHL-5, 5 h), 5.2e-06 M.
